Here are results for 2 compounds from publication PMC8609519, “Potent Inhibitor of Human Trypsins from the Aeruginosin Family of Natural Products” (ACS Chemical Biology, 2021).

Assay [1] concerns all three human trypsins. Also noted: method as in PMID 28463992. To be noted: equally inhibits all three human trypsins; cited from earlier work.
The target in assay [2] is T1, human plasma kallikrein (Homo sapiens, UniProt P03952).
T1 construct: purchased Sigma
The assay is described as follows: Serine protease inhibition, chromogenic substrate S-2302. It counts as biochemical. The settings on record: read-out: IC50, human plasma kallikrein. The method, then: (§1) Recombinant trypsinogens-1, -2, and -3 were produced inEscherichia coliand activated to trypsin-1, -2, and -3 as described previously.[45] The enzyme inhibitory activity of suomilide was determined in 96-well plates by adding 10 μL of diluted suomilide (0.21–3400 nM, diluted in ultra-purified water, containing up to 0.027% DMSO), 15 μL of 0.1% bovine serum albumin in 50 mM Tris-buffer saline (BSA/TBS), and 25 μL of each trypsin (1.88 nM). 10 μL of ultra-purified water was used as a control. […] Preincubation of suomilide with trypsin isoenzymes prior to the addition of the substrate was required for maximal inhibition (data not shown). Thus, suomilide was preincubated with trypsins at room temperature for 30 min before the addition of 50 μL of 0.2 mM chromogenic substrate S-2222 (ChromogeniX) in ultra-purified water. The change of absorbance at 405 nm was followed for 15 min (VICTOR X4 multilabel plate reader, PerkinElmer). The experiment was performed three times, each with two replicates (n = 3). The absorbance change during the phase of the substrate reaction in which the absorbance of the control reaction increased linearly over time was determined. […] The IC50 values were estimated using Quest Graph, and the standard error was calculated using MS Excel 2013.

Assay [3] concerns PC-3M prostate cancer cells. The assay is described as follows: Cell proliferation assay (CCK-8). The format is cell-based, human. To be noted: 3.3 μM, 3 days, cells on plastic surface. The method, then:
(§2) PC-3M prostate cancer cells[46] were cultured in Ham’s F12 Nutrient Mix with GlutaMAX (Gibco), supplemented with 10% fetal calf serum (FCS), 100 IU mL^–1 penicillin, 100 μg mL^–1 streptomycin, and 0.15% sodium bicarbonate at 37 °C in a humidified, CO2-controlled (5%) incubator. For the invasion assay, PC-3M cells (1.45 × 10^5) in a serum-free medium containing 0 or 3.3 μM suomilide were added into polycarbonate membrane Transwell inserts with 8.0 μm pore size (Thermo Fisher) covered with 100 μL of the phenol red-free Matrigel basement membrane matrix (Corning) diluted 1:30 with phosphate-buffered saline. The inserts were placed into a 24-well plate containing 750 μL of the culture medium with 10% FCS and incubated for 4 days at 37 °C in a humidified, CO2-controlled (5%) incubator. Matrigel and the noninvasive cells were removed using cotton swabs, and the membranes were stained with 0.09% crystal violet for 10 min. The experiment was performed twice, both with four replicates (n = 2). The invasion was quantitated from microscopic images (three panels from each of the replicates) using Fiji ImageJ. […] After 3 days, 10 μL/well CCK-8 solution (Cell Counting Kit-8, Dojindo) was added, and absorbance at 450 nm was measured after 1.5 h incubation. […]

Assay [4] concerns unspecified but most likely non-human trypsin isoenzyme. Set-up: method as in doi:10.1016/s0040-4039(97)01193-3. The settings on record: cited from earlier work.
The test system of assay [5] is thrombin. Set-up: method as in doi:10.1016/s0040-4039(97)01193-3. To be noted: cited from earlier work.
In assay [6] the target is T2, human urokinase (Homo sapiens, UniProt P00749).
T2 construct: purchased Sigma; host or cells: human kidney cells
The assay can be described thus: Serine protease inhibition, urokinase from human kidney cells. It counts as biochemical. To be noted: read-out: IC50, human urokinase. The procedure:
as §1

Assay [7] deals with T3, trypsin-3 (Homo sapiens, UniProt P35030).
T3 construct: made in house; host or cells: Escherichia coli
T3 sequence (P35030 81-304 limits assumed): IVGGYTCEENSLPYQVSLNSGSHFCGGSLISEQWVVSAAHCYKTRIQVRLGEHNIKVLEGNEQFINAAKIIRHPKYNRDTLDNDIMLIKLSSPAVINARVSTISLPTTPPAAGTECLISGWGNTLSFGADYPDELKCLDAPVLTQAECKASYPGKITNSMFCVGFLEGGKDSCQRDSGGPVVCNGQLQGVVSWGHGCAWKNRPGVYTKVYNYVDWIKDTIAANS
The assay can be described thus: Serine protease inhibition, chromogenic substrate S-2222. It counts as biochemical. To be noted: read-out: IC50, trypsin-3; 30 min preincubation, substrate S-2222, n = 3. The procedure:
(§3) Recombinant trypsinogens-1, -2, and -3 were produced inEscherichia coliand activated to trypsin-1, -2, and -3 as described previously.[45] The enzyme inhibitory activity of suomilide was determined in 96-well plates by adding 10 μL of diluted suomilide (0.21–3400 nM, diluted in ultra-purified water, containing up to 0.027% DMSO), 15 μL of 0.1% bovine serum albumin in 50 mM Tris-buffer saline (BSA/TBS), and 25 μL of each trypsin (1.88 nM). 10 μL of ultra-purified water was used as a control. […] Preincubation of suomilide with trypsin isoenzymes prior to the addition of the substrate was required for maximal inhibition (data not shown). Thus, suomilide was preincubated with trypsins at room temperature for 30 min before the addition of 50 μL of 0.2 mM chromogenic substrate S-2222 (ChromogeniX) in ultra-purified water. The change of absorbance at 405 nm was followed for 15 min (VICTOR X4 multilabel plate reader, PerkinElmer). The experiment was performed three times, each with two replicates (n = 3). The absorbance change during the phase of the substrate reaction in which the absorbance of the control reaction increased linearly over time was determined. The same experiment was performed with plasmin (Sigma) (15 nM) with chromogenic substrate S-2251 (ChromogeniX); plasma KLK (Sigma) (20 nM) with substrate ChromogeniX S-2302 (ChromogeniX); Factor Xa (Sigma) (3 nM) with substrate S-2222; and thrombin (Sigma) (1 nM) with substrate S-2238 (ChromogeniX). Except for urokinase from human kidney cells (Sigma) (125 IU), 15 μL of BSA/TBS with 0.9% NaCl was used. Nine 4-fold dilutions of suomilide were prepared, with 12.5 μM being the highest final concentration. The IC50 values were estimated using Quest Graph, and the standard error was calculated using MS Excel 2013.

Assay [8] addresses T4, human Factor Xa (Homo sapiens, UniProt P00742).
T4 construct: purchased Sigma
Described as above. The format is biochemical. The settings on record: read-out: IC50, human Factor Xa. The procedure: as §3

The target in assay [9] is T5, trypsin-1 (Homo sapiens, UniProt P07477).
T5 construct: made in house; host or cells: Escherichia coli
Described as above. It counts as biochemical. The settings on record: read-out: IC50, trypsin-1; 30 min preincubation, substrate S-2222, n = 3. The method, then:
as §3

In assay [10] the target is T6, recombinant human trypsin-2 (Homo sapiens, UniProt P07478).
T6 construct: made in house; host or cells: Escherichia coli
T6 sequence (P07478 24-247): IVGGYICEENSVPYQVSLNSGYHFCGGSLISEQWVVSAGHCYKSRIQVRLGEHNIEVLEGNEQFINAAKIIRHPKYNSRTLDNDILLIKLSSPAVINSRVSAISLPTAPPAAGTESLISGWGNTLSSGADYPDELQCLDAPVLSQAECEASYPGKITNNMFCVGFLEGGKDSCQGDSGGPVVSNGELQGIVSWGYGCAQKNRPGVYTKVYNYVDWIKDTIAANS
The assay is described as above. It counts as biochemical. The settings on record: read-out: IC50, trypsin-2; 30 min preincubation, substrate S-2222, n = 3. The method, then:
as §3

The target of assay [11] is T7, human plasmin (Homo sapiens, UniProt P00747).
T7 construct: purchased Sigma
T7 sequence (P00747 581-810 limits assumed): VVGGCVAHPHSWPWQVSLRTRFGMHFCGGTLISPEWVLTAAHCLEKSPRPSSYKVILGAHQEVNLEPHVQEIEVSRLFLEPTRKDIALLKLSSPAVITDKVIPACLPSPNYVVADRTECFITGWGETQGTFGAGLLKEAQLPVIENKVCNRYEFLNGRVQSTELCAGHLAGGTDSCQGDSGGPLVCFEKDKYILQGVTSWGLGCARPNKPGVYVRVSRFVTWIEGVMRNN
T7 sequence (P00747 97-580 partner limits assumed): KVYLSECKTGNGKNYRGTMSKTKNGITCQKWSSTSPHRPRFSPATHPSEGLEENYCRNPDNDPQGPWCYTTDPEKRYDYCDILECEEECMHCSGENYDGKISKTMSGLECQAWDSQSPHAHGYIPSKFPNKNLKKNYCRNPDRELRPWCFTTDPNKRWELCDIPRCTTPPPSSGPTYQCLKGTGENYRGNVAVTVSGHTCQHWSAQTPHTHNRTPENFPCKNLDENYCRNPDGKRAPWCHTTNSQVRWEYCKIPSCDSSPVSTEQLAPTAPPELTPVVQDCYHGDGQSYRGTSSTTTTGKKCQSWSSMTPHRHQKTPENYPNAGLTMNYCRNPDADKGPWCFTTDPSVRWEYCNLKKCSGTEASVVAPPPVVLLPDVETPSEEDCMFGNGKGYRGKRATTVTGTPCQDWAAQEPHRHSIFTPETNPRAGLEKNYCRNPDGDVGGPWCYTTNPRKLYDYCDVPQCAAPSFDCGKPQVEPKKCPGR
The assay is described as follows: Serine protease inhibition, chromogenic substrate S-2251. The format is biochemical. To be noted: read-out: IC50, human plasmin. The procedure: as §1

The subject of assay [12] is PC-3M prostate cancer cells. The assay can be described thus: Transwell cell invasion assay through Matrigel. It counts as cell-based, human. The settings on record: 3.3 μM, 4 days, Transwell with Matrigel. The method, then: as §2
For assay [13], the target named is T8, human thrombin (Homo sapiens, UniProt P00734).
T8 construct: purchased Sigma
The assay can be described thus: Serine protease inhibition, chromogenic substrate S-2238. It counts as biochemical. To be noted: read-out: IC50, human thrombin, highest final concentration 12.5 μM. The procedure:
as §1

Assay [14] deals with T3, trypsin-3. The assay is described as follows: Surface plasmon resonance (Biacore) kinetic analysis. It counts as binding. The settings on record: SPR. The procedure: (§4) The binding of suomilide to trypsin-1 and -3 was analyzed with surface plasmon resonance in Biacore 2000 instrumentation (Cytiva). […] The binding was analyzed using Tris-buffered saline (pH 7.4) containing 0.01% DMSO as the running buffer and a flow rate of 30 μL min^–1. The kinetics of the suomilide interaction with the trypsins were measured by varying suomilide concentrations from 250 to 4000 nM with a contact time of 5 min and a dissociation phase of 20 min. After the completion of the dissociation phase, the flow cells were regenerated with 10 mM Glycine, pH 1.7. The data were evaluated by first subtracting the sensorgrams obtained from the trypsin-3 mutant control flow cell from those obtained from the flow cells containing trypsin-1 or -3 for each suomilide concentration separately and overlaying the resulting sensorgrams for each ligand. Association and dissociation rate constants were obtained by the Langmuir global fit model (BiaEvaluation Software, Cytiva). The residence time was calculated as a reciprocal of the […].
In general terms: In SPR one partner is held on a chip, and binding of the other changes the refractive index at the surface.

The target of assay [15] is T5, trypsin-1. Described as above. The settings on record: SPR. The format is binding. The procedure:
as §4

Assay [16] has as its system plasmin. Set-up: method as in doi:10.1016/s0040-4039(97)01193-3. To be noted: cited from earlier work.

“Also recorded” adds a separate entry of the source. Where only a bound is given, the exact number is not on record here.

T1 sequence (P03952 391-638 limits assumed): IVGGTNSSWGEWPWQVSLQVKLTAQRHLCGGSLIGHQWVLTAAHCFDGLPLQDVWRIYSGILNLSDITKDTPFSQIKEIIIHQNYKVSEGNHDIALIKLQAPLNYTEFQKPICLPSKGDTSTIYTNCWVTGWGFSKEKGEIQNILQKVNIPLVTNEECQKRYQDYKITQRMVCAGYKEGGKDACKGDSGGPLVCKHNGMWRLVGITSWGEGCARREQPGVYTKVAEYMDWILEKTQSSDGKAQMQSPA
T1 sequence (P03952 20-390 partner limits assumed): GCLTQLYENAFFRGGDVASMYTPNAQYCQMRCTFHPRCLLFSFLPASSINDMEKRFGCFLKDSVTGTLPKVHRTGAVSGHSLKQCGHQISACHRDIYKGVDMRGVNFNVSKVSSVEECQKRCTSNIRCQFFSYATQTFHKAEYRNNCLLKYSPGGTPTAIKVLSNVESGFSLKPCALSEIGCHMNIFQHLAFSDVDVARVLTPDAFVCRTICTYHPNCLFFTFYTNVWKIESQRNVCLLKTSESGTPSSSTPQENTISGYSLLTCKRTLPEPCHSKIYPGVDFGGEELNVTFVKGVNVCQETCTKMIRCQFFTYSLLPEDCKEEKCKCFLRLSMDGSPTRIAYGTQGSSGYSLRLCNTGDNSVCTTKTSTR
T4 sequence (P00742 235-488 limits assumed): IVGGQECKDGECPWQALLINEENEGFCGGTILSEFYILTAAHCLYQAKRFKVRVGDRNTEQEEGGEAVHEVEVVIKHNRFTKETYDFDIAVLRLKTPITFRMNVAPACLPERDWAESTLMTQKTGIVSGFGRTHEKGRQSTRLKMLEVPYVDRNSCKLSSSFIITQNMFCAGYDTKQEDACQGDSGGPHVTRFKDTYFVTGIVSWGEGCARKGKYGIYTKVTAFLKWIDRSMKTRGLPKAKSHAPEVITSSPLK
T4 sequence (P00742 41-179 partner limits assumed): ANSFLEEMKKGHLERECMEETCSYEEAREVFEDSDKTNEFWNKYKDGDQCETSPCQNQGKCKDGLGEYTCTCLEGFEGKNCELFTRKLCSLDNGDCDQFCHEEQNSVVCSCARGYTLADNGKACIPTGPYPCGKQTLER

For `N=C(N)c1ccc(/N=N/Nc2ccc(C(=N)N)cc2)cc1` [diminazene], in [1], the “inhibition of human trypsins (concentration range)” value is on record as “micromolar concentrations”.

Take `CCCCCC(=O)OCC1OC(OC2CC3C(O)C4(C2)OC(=O)NC4C(C(=O)NCCC2=CCN(C(=N)N)C2)N3C(=O)C(NC(=O)C(COS(=O)(=O)O)OC)C(C)CC)C(OC(=O)CCCCC)C(O)C1O` (stereo not drawn) [suomilide]: the IC50 in assay [2] was 82 ± 24 nM; in [4] (unspecified, most likely non-human trypsin), 1800 nM; in assay [6] it was 7100 ± 1360 nM; in [7], 11.5 nM; in assay [8], 114 ± 2 nM; in [9], 104 nM. Besides, the IC50 in [10] was 4.7 nM; in assay [11], 7.6 ± 2.3 nM; in [13] it was over 12500 nM. Besides, in assay [3], the “effect on PC-3M cell proliferation” value is “without affecting cell proliferation; also recorded: did not affect”. Besides, the “inhibition of trypsin (concentration range)” value in assay [4] is given as “low micromolar concentrations”. In addition, in assay [5], the “inhibition of thrombin (concentration range)” value is on record as “low micromolar concentrations”. The “effect on PC-3M cell invasion” value in assay [12] is on record as “inhibited the invasion; also recorded: significantly inhibited”. In addition, the kon in assay [14] (immobilized trypsin-3, Langmuir global fit, read-out: ka (association rate constant), trypsin-3) was 12000 M⁻¹ s⁻¹; in assay [15] (immobilized trypsin-1, Langmuir global fit, read-out: ka (association rate constant), trypsin-1) it was 33000 M⁻¹ s⁻¹. In addition, the koff amounted to 0.00029 s⁻¹ in assay [14] (immobilized trypsin-3, Langmuir global fit, read-out: kd (dissociation rate constant), trypsin-3) and 0.011 s⁻¹ in [15] (immobilized trypsin-1, Langmuir global fit, read-out: kd (dissociation rate constant), trypsin-1). Moreover, the residence time (usually the mean lifetime of the complex, commonly the reciprocal of the off-rate) in [14] (calculated as reciprocal of the dissociation constant, read-out: residence time (τ), trypsin-3) is 57 min; in [15] (calculated as reciprocal of the dissociation constant, read-out: residence time (τ), trypsin-1), 1.5 min. In addition, the “inhibition of plasmin (concentration range)” value in assay [16] is “low micromolar concentrations”.
